Literature values as cited in PMC9851200, “Multiparameter phenotypic screening for endogenous TFEB and TFE3 translocation identifies novel chemical series modulating lysosome function” (Autophagy, 2022).

How the values were obtained:
Design in all cases: method as in original PKIS2 published data
[1] = target: kinases (KINOMEscan panel) (Homo sapiens, UniProt Q8TDX7); conditions: NEK7; Published KINOMEscan; ref original PKIS2 published data; cited from earlier work
[2] = target: kinases (KINOMEscan panel) (Homo sapiens, UniProt Q9NQU5); conditions: PAK6; Published KINOMEscan; ref original PKIS2 published data; cited from earlier work
kinases (KINOMEscan panel) (Homo sapiens, UniProt Q9NQU5), sequence (Q9NQU5 whole entry): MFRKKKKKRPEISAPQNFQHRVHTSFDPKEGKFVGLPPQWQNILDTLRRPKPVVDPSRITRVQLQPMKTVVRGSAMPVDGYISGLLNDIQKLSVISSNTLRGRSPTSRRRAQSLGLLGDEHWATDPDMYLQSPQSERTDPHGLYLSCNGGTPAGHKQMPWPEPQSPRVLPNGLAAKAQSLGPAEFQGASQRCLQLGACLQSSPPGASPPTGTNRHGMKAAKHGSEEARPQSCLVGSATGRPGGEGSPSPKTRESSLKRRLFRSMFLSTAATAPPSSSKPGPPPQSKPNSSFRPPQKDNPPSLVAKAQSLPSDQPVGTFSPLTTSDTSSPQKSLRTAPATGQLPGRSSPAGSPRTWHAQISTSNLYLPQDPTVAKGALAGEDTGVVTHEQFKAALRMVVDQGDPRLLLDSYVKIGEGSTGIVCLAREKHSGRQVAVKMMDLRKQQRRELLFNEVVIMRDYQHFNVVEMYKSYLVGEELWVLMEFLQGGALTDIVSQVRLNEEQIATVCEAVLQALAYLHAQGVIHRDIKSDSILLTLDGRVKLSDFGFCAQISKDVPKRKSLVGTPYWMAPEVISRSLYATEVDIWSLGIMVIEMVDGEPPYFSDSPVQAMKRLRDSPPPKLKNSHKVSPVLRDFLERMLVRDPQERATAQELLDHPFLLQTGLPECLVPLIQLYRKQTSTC

[3] = target: kinases (KINOMEscan panel) (Homo sapiens, UniProt P07333); conditions: Published KINOMEscan; ref original PKIS2 published data; cited from earlier work
kinases (KINOMEscan panel) (Homo sapiens, UniProt P07333), sequence (P07333 20-972): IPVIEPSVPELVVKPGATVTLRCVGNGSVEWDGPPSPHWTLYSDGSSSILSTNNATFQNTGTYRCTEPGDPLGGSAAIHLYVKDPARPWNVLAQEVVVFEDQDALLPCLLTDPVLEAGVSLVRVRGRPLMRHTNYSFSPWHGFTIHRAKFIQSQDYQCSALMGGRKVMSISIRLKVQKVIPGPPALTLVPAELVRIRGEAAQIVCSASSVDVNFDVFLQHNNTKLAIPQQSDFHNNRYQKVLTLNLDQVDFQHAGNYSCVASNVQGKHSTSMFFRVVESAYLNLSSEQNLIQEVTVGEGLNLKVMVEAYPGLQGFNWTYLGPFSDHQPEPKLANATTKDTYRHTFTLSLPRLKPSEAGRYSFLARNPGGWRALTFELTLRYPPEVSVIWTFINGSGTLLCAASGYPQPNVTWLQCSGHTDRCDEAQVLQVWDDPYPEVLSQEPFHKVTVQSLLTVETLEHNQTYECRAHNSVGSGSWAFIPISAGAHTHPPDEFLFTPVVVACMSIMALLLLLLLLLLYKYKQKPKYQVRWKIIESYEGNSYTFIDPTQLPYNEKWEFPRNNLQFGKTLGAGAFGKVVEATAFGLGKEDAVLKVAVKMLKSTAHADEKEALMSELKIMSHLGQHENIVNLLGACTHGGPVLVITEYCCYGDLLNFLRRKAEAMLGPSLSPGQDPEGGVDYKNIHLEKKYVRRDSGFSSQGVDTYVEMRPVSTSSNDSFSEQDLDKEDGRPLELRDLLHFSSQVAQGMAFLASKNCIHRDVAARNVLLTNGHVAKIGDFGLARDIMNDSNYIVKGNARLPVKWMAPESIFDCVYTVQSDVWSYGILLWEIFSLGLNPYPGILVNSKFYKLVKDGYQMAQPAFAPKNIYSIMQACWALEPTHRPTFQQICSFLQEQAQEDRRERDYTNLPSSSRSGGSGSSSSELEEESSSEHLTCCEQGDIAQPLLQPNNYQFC

[4] = target: kinases (KINOMEscan panel) (Homo sapiens, UniProt Q8IVW4); conditions: kinase CDKL3; Published KINOMEscan; ref original PKIS2 published data; cited from earlier work
kinases (KINOMEscan panel) (Homo sapiens, UniProt Q8IVW4), sequence (Q8IVW4 whole entry): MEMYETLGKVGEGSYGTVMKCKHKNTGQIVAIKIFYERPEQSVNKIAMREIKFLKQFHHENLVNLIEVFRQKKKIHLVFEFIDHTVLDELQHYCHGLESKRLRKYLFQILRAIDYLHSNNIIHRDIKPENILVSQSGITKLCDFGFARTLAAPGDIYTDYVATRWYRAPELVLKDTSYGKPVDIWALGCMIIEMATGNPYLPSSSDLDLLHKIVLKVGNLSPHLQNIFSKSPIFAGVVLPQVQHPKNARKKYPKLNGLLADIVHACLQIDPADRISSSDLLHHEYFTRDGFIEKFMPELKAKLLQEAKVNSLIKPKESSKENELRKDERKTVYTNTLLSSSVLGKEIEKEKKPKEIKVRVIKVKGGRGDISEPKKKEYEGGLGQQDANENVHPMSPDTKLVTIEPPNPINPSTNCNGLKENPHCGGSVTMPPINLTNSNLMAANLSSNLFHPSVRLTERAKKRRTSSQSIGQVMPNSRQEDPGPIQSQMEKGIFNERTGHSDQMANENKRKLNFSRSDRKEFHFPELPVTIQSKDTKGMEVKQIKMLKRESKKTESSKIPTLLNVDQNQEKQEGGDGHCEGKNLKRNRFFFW

[5] = target: T1, kinases (KINOMEscan panel) (Homo sapiens, UniProt Q16566); conditions: CAMK4; Published KINOMEscan; ref original PKIS2 published data; cited from earlier work
T1 sequence (Q16566 1-473): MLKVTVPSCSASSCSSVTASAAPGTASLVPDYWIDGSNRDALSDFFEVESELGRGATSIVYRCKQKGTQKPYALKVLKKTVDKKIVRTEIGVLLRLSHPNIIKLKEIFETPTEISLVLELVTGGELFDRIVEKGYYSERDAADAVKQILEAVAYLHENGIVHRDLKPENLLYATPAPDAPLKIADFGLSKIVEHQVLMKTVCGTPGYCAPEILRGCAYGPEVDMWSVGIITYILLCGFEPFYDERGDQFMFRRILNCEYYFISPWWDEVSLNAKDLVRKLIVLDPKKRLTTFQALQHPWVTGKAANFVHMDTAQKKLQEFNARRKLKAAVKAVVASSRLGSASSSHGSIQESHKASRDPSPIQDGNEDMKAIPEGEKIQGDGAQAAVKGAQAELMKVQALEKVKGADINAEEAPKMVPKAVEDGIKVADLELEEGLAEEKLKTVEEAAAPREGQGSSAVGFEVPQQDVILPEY

[6] = target: kinases (KINOMEscan panel) (Homo sapiens, UniProt P07949); conditions: kinase RET; Published KINOMEscan; ref original PKIS2 published data; cited from earlier work
[7] = target: T2, kinases (KINOMEscan panel) (Homo sapiens, UniProt P41743); conditions: PRKCI; Published KINOMEscan; ref original PKIS2 published data; cited from earlier work
T2 sequence (P41743 1-596): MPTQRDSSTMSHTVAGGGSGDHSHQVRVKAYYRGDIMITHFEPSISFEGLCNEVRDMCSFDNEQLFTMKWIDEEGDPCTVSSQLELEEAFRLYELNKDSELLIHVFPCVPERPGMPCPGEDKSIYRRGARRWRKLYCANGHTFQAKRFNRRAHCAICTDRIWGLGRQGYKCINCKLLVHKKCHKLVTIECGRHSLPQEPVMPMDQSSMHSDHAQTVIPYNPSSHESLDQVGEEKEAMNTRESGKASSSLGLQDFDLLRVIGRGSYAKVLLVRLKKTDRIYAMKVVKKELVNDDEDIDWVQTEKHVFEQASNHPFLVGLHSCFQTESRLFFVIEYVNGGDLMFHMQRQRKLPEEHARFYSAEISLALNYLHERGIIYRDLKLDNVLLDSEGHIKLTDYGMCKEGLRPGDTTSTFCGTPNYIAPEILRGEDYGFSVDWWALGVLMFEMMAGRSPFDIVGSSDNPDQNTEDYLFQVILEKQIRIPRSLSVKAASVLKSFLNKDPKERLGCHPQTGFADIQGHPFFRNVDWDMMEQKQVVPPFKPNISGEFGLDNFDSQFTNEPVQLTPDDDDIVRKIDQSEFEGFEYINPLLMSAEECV

[8] = target: kinases (KINOMEscan panel) (Homo sapiens, UniProt O00750); conditions: PIK3C2B; Published KINOMEscan; ref original PKIS2 published data; cited from earlier work
kinases (KINOMEscan panel) (Homo sapiens, UniProt O00750), sequence (O00750 whole entry): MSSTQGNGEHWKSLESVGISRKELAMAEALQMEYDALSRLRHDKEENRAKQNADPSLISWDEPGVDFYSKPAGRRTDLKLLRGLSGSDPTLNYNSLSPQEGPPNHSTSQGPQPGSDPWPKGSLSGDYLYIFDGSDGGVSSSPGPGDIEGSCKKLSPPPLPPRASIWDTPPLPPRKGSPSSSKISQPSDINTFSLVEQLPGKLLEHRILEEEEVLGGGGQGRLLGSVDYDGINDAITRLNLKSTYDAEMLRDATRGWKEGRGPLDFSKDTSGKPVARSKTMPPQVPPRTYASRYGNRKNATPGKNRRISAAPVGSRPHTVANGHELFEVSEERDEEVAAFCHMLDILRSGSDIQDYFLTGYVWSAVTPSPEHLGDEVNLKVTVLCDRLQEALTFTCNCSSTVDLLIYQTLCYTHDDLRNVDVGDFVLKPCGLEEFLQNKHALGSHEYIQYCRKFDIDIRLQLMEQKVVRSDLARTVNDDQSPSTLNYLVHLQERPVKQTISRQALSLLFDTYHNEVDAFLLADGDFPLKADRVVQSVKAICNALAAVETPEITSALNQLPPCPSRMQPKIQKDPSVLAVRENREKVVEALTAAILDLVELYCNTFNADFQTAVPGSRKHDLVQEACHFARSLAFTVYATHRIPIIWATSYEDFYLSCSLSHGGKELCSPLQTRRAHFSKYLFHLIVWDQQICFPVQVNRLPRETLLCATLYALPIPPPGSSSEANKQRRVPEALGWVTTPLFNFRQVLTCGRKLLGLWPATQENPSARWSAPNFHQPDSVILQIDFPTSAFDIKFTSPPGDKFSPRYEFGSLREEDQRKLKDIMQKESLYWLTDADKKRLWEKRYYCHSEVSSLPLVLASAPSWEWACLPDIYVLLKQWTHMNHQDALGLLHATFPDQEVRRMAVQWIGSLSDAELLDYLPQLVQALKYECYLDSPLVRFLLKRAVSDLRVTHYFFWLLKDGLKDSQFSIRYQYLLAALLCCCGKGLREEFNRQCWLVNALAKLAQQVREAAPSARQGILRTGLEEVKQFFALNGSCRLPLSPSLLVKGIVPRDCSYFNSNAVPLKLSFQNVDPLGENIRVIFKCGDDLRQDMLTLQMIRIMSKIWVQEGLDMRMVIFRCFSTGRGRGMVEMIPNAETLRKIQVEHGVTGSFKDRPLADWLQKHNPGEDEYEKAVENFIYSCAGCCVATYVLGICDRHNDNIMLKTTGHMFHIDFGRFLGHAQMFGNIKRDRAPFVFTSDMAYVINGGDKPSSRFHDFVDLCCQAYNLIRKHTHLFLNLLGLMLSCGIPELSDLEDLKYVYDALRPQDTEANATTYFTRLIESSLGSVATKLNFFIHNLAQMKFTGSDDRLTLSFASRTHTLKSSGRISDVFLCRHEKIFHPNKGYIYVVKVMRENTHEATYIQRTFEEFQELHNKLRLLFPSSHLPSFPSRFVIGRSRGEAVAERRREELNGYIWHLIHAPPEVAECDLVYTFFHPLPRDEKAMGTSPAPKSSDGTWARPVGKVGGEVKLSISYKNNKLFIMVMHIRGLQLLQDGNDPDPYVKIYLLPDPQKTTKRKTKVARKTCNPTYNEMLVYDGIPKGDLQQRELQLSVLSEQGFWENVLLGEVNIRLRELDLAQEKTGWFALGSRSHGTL

[9] = target: kinases (KINOMEscan panel) (Homo sapiens, UniProt Q15746); conditions: kinase MYLK; Published KINOMEscan; ref original PKIS2 published data; cited from earlier work
[10] = target: kinases (KINOMEscan panel) (Homo sapiens, UniProt P49760); conditions: kinase CLK2; Published KINOMEscan; ref original PKIS2 published data; cited from earlier work
kinases (KINOMEscan panel) (Homo sapiens, UniProt P49760), sequence (P49760 whole entry): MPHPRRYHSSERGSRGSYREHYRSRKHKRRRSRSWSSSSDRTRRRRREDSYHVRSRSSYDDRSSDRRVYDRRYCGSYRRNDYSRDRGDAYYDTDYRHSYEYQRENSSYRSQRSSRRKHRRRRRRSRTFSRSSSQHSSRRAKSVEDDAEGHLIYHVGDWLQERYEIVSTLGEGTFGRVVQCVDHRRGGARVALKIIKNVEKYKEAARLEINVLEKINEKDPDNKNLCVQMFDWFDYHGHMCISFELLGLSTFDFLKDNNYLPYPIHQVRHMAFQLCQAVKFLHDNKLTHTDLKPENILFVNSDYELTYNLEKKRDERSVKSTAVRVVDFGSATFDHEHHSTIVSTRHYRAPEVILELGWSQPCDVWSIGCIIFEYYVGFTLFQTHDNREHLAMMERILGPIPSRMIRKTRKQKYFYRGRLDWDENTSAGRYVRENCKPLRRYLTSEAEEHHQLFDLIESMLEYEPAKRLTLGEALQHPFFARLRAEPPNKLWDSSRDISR

[11] = target: T3, kinases (KINOMEscan panel) (Homo sapiens, UniProt Q04771); conditions: ACVR1; Published KINOMEscan; ref original PKIS2 published data; cited from earlier work
T3 sequence (Q04771 21-509): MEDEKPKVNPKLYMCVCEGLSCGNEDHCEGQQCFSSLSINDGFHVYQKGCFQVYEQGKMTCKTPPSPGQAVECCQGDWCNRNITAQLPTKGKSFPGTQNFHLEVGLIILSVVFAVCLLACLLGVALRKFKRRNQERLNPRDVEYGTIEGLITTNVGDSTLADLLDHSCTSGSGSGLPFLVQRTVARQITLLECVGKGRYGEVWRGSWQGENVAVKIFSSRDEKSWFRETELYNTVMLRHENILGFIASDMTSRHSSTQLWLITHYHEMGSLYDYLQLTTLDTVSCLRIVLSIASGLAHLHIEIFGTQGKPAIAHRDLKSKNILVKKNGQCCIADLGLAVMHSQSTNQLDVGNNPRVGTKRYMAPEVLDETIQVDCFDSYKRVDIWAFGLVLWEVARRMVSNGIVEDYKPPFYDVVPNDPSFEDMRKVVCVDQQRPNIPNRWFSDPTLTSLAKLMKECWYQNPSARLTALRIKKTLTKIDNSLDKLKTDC

[12] = target: kinases (KINOMEscan panel) (Homo sapiens, UniProt P48729); conditions: CSNK1A1; Published KINOMEscan; ref original PKIS2 published data; cited from earlier work
kinases (KINOMEscan panel) (Homo sapiens, UniProt P48729), sequence (P48729 whole entry): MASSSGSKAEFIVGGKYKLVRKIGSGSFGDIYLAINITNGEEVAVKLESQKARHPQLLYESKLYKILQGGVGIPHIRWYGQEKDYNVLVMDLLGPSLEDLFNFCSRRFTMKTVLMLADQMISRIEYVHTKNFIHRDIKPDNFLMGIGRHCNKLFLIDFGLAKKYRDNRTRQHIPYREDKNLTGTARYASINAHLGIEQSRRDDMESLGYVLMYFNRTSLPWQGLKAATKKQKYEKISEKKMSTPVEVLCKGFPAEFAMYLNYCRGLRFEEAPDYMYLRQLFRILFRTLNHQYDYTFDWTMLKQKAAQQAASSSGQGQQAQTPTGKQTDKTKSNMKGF

[13] = target: kinases (KINOMEscan panel) (Homo sapiens, UniProt P22694); conditions: PRKACB; Published KINOMEscan; ref original PKIS2 published data; cited from earlier work

kinases (KINOMEscan panel) (Homo sapiens, UniProt Q8TDX7), sequence (Q8TDX7 whole entry): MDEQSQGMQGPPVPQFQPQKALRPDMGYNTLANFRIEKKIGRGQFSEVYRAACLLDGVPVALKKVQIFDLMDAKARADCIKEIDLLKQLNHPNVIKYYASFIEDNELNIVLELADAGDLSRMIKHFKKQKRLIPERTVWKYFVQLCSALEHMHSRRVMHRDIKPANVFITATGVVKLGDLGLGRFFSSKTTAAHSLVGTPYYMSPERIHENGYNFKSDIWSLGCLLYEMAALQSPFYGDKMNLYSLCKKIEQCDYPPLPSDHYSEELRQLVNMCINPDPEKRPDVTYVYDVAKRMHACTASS

SMILES: Cc1cccc(-c2nc(Nc3ccncc3)c3ccccc3n2)n1 [NK215]
- KINOMEscan NEK7 [1]: 0
- KINOMEscan PAK6 [2]: 3
- KINOMEscan CSF1R [3]: 0
- KINOMEscan CSF1R-autoinhibited [3]: 0
- KINOMEscan CDKL3 [4]: 0
- KINOMEscan CAMK4 [5]: 47
- KINOMEscan RET [6]: 9
- KINOMEscan PRKCI [7]: 32
- KINOMEscan PIK3C2B [8]: 0
- KINOMEscan MYLK [9]: 12
- KINOMEscan CLK2 [10]: 8
- KINOMEscan ACVR1 [11]: 15
- KINOMEscan CSNK1A1 [12]: 46
- KINOMEscan PRKACB [13]: 30
